Assay results from ChEMBL document CHEMBL1777698, “Synthesis and biological evaluation of unique stereodimers of sinomenine analogues as potential inhibitors of NO production” (Bioorg Med Chem, 2011).
The source made the active and inactive calls. No cut-off for these calls is given here.

How the values were obtained:
RAW264.7 [1] = experiment: Cytotoxicity against mouse RAW264.7 cells after 24 hrs by MTT assay; format: cell-based
RAW264.7 [2] = experiment: Inhibition of LPS-induced nitric oxide production in mouse RAW264.7 cells at 100 uM after 24 hrs by Griess reaction relative to control; format: functional; conditions: for inhibition at 100 µM: Mus musculus, RAW264.7, 24 h
RAW264.7 [3] = experiment: Inhibition of LPS-induced nitric oxide production in mouse RAW264.7 cells at 50 uM after 24 hrs by Griess reaction relative to control; format: functional; conditions: for inhibition at 50 µM: Mus musculus, RAW264.7, 24 h
RAW264.7 [4] = experiment: Inhibition of LPS-induced nitric oxide production in mouse RAW264.7 cells at 25 uM after 24 hrs by Griess reaction relative to control; format: functional; conditions: for inhibition at 25 µM: Mus musculus, RAW264.7, 24 h
RAW264.7 [5] = experiment: Inhibition of LPS-induced iNOS mRNA expression in mouse RAW264.7 cells by RT-PCR analysis; format: functional, cell-based
RAW264.7 [6] = experiment: Inhibition of LPS-induced nitric oxide production in mouse RAW264.7 cells at 12.5 uM after 24 hrs by Griess reaction relative to control; format: functional
RAW264.7 [7] = experiment: Inhibition of LPS-induced nitric oxide production in mouse RAW264.7 cells at 1.5625 uM after 24 hrs by Griess reaction relative to control; format: functional
RAW264.7 [8] = experiment: Inhibition of LPS-induced nitric oxide production in mouse RAW264.7 cells at 6.25 uM after 24 hrs by Griess reaction relative to control; format: functional
RAW264.7 [9] = experiment: Inhibition of LPS-induced nitric oxide production in mouse RAW264.7 cells at 3.125 uM after 24 hrs by Griess reaction relative to control; format: functional
RAW264.7 [10] = experiment: Cytotoxicity against mouse RAW264.7 cells at 6.25 uM after 24 hrs by MTT assay; format: cell-based; conditions: raw264.7, 24 h
RAW264.7 [11] = experiment: Inhibition of LPS-induced iNOS mRNA expression in mouse RAW264.7 cells at 100 uM by RT-PCR analysis; format: functional, cell-based

Compound | IC50 (RAW264.7 [1]; Mus musculus, RAW264.7, 24 h) | inhibition at 100 µM (RAW264.7 [2]) | inhibition at 50 µM (RAW264.7 [3]) | inhibition at 25 µM (RAW264.7 [4]) | inhibition (INH) (RAW264.7 [4]) | also measured
COc1ccc2c(c1O)[C@]13CCCC[C@@H]1[C@H](C2)N(C)CC3 | > 100 µM | 30.6% | 28.1% | 12.1% |  | inhibition (RAW264.7 [5]): Dose-dependent effect
COc1ccc2c(c1O)[C@@]13CCN(C)[C@@H](C2)[C@H]1C[C@@H](OC)[C@H](NS(C)(=O)=O)C3 | > 100 µM | -3.5% | -3.7% | -2.3% |  | 
COC1=C[C@@H]2[C@@H]3Cc4ccc(OC)c(O)c4[C@]2(CCN3)CC1=O | > 100 µM | 10.7% | -0.8% | -6.1% |  | 
COc1ccc2c(c1O)[C@@]13CCN(C)[C@@H](C2)[C@H]1C[C@@H](OC)[C@H](NS(=O)(=O)c1ccc(C)cc1)C3 | > 100 µM | 39.8% | 30% | 10.9% |  | inhibition (RAW264.7 [5]): Dose-dependent effect
COc1ccc2c(c1O)[C@@]13CCN(C)[C@@H](C2)[C@H]1Cc1nc2ccccc2nc1C3 | 57.9 µM |  |  | 11.4% |  | inhibition at 12.5 µM (RAW264.7 [6]; Mus musculus, RAW264.7, 24 h): 1.3%
COc1cc(-c2cc(OC)c(O)c3c2C[C@H]2[C@H]4Cc5nc6ccccc6nc5C[C@@]34CCN2C)c2c(c1O)[C@@]13CCN(C)[C@@H](C2)[C@H]1Cc1nc2ccccc2nc1C3 | 6.3 µM |  |  |  |  | inhibition at 1.5625 µM (RAW264.7 [7]; Mus musculus, RAW264.7, 24 h): 8.4%
COC1=C[C@@H]2[C@@H]3Cc4c(-c5cc(OC)c(O)c6c5C[C@H]5[C@H]7C=C(OC)C(=O)C[C@@]67CCN5C)cc(OC)c(O)c4[C@]2(CCN3C)CC1=O (stereo in doubt; 1a) [listing 1 of 2 here] | > 100 µM |  |  |  | -2.9% | inhibition (INH) (RAW264.7 [2]): 23.7%; inhibition (INH) (RAW264.7 [3]): 15%
COC1=C[C@@H]2[C@@H]3Cc4c(-c5cc(OC)c(O)c6c5C[C@H]5[C@H]7C=C(OC)C(=O)C[C@@]67CCN5C)cc(OC)c(O)c4[C@]2(CCN3C)CC1=O (stereo in doubt; 1a) [listing 2 of 2 here] |  |  |  |  |  | inhibition (RAW264.7 [5]): Dose-dependent effect
COC1=C[C@@H]2[C@@H]3Cc4c(-c5cc(OC)c(O)c6c5C[C@H]5[C@H]7C=C(OC)C(=O)C[C@@]67CCN5C)cc(OC)c(O)c4[C@]2(CCN3C)CC1=O (stereo in doubt; 1b) |  |  |  |  | -1.3% | inhibition (INH) (RAW264.7 [2]): -2.1%; inhibition (INH) (RAW264.7 [3]): 6.6%
COc1cc(-c2cc(OC)c(O)c3c2C[C@H]2[C@H]4CCCC[C@@]34CCN2C)c2c(c1O)[C@]13CCCC[C@@H]1[C@H](C2)N(C)CC3 (stereo in doubt; 2a) [listing 1 of 2 here] | 9.5 µM |  |  |  |  | inhibition (INH) (RAW264.7 [8]): 41.6%; inhibition (INH) (RAW264.7 [9]): 17%; inhibition (INH) (RAW264.7 [7]): 2.7%; Activity (RAW264.7 [10]): Non-toxic
COc1cc(-c2cc(OC)c(O)c3c2C[C@H]2[C@H]4CCCC[C@@]34CCN2C)c2c(c1O)[C@]13CCCC[C@@H]1[C@H](C2)N(C)CC3 (stereo in doubt; 2a) [listing 2 of 2 here] |  |  |  |  |  | inhibition (RAW264.7 [5]): Dose-dependent effect
COc1cc(-c2cc(OC)c(O)c3c2C[C@H]2[C@H]4CCCC[C@@]34CCN2C)c2c(c1O)[C@]13CCCC[C@@H]1[C@H](C2)N(C)CC3 (stereo in doubt; 2b) [listing 1 of 2 here] |  |  |  |  |  | IC50 (RAW264.7 [1]; raw264.7): 14.2 µM; inhibition at 6.25 µM (RAW264.7 [8]; Mus musculus, RAW264.7, 24 h): 35.2%; inhibition at 3.125 µM (RAW264.7 [9]; Mus musculus, RAW264.7, 24 h): 16.9%; inhibition (INH) (RAW264.7 [7]): -4.4%
COc1cc(-c2cc(OC)c(O)c3c2C[C@H]2[C@H]4CCCC[C@@]34CCN2C)c2c(c1O)[C@]13CCCC[C@@H]1[C@H](C2)N(C)CC3 (stereo in doubt; 2b) [listing 2 of 2 here] |  |  |  |  |  | inhibition (RAW264.7 [5]): Dose-dependent effect
COC1=C[C@@H]2[C@@H]3Cc4c(-c5cc(OC)c(O)c6c5C[C@@H]5NCC[C@]67CC(=O)C(OC)=C[C@H]57)cc(OC)c(O)c4[C@]2(CCN3)CC1=O (stereo in doubt; 3a) | > 100 µM |  |  |  | -9.3% | inhibition (INH) (RAW264.7 [2]): 16%; inhibition (INH) (RAW264.7 [3]): -12.6%
COC1=C[C@@H]2[C@@H]3Cc4c(-c5cc(OC)c(O)c6c5C[C@@H]5NCC[C@]67CC(=O)C(OC)=C[C@H]57)cc(OC)c(O)c4[C@]2(CCN3)CC1=O (stereo in doubt; 3b) |  |  |  |  | -11.6% | inhibition (INH) (RAW264.7 [2]): -7.1%; inhibition (INH) (RAW264.7 [3]): -11%
COc1cc(-c2cc(OC)c(O)c3c2C[C@H]2[C@H]4C[C@@H](OC)[C@H](NS(=O)(=O)c5ccc(C)cc5)C[C@@]34CCN2C)c2c(c1O)[C@@]13CCN(C)[C@@H](C2)[C@H]1C[C@@H](OC)[C@H](NS(=O)(=O)c1ccc(C)cc1)C3 (stereo in doubt; 4a) | 43.5 µM |  |  |  | 4.9% | inhibition (INH) (RAW264.7 [6]): 2.6%
COc1cc(-c2cc(OC)c(O)c3c2C[C@H]2[C@H]4C[C@@H](OC)[C@H](NS(=O)(=O)c5ccc(C)cc5)C[C@@]34CCN2C)c2c(c1O)[C@@]13CCN(C)[C@@H](C2)[C@H]1C[C@@H](OC)[C@H](NS(=O)(=O)c1ccc(C)cc1)C3 (stereo in doubt; 4b) |  |  | -2.2% |  | -2.9% | IC50 (RAW264.7 [1]; raw264.7): 72.9 µM; inhibition (INH) (RAW264.7 [6]): -4%
COc1cc(-c2cc(OC)c(O)c3c2C[C@H]2[C@H]4C[C@@H](OC)[C@H](NS(C)(=O)=O)C[C@@]34CCN2C)c2c(c1O)[C@@]13CCN(C)[C@@H](C2)[C@H]1C[C@@H](OC)[C@H](NS(C)(=O)=O)C3 (stereo in doubt; 5a) | > 100 µM | 9.3% |  |  | -0.2% | inhibition (INH) (RAW264.7 [3]): 0.2%
COc1cc(-c2cc(OC)c(O)c3c2C[C@H]2[C@H]4C[C@@H](OC)[C@H](NS(C)(=O)=O)C[C@@]34CCN2C)c2c(c1O)[C@@]13CCN(C)[C@@H](C2)[C@H]1C[C@@H](OC)[C@H](NS(C)(=O)=O)C3 (stereo in doubt; 5b) |  |  |  |  | -8.4% | inhibition (INH) (RAW264.7 [2]): 9.9%; inhibition (INH) (RAW264.7 [3]): 8.6%
N=C(N)NN [PIMAGEDINE] |  | 86% | 74.9% | 52.5% |  | 
COC1=C[C@@H]2[C@@H]3Cc4ccc(OC)c(O)c4[C@]2(CCN3C)CC1=O [SINOMENINE] | > 100 µM | 12.8% | 0.1% | -3% |  | inhibition (RAW264.7 [11]): Active
